This passage reports melting point results from a melting point compilation (Tetko et al.).

Usually melting point stands for the temperature of the solid-liquid transition.

In turn, `NCCC(=O)Nc1ccc(C(N)=O)c(Cl)c1` returned a melting point of 264 to 266 °C. The compound `O=C(O)c1c2c(nc3ccccc13)C(=Cc1cccs1)CCC2` registered a melting point of 176 to 178 °C.

In the case of `Nc1cc(C(=O)O)ccc1N1CCSCC1`, the melting point fell in the range of 252 to 254 °C. Compound `Fc1ccc(-c2nnc(Cl)c3ccccc23)cc1` showed a melting point of 186 to 188 °C.

Compound `CC(=Cc1ccc(Cl)cc1)C(=O)O` had a melting point of 159 to 161 °C. The compound `Cc1ccc(C2CC2C(=O)O)s1` (stereo not drawn) gave a melting point of 45 to 47 °C. In turn, `NNc1ccccc1S(=O)(=O)N1CCOCC1` had a melting point of 141 to 143 °C.

Take `NS(=O)(=O)c1ccc(C(=O)O)nc1`: the melting point was 194 to 196 °C. Consider `CCOC(=O)CNC(=O)OCC(F)(F)F`, for which the melting point lay within 38 to 40 °C. Consider `NN=c1ncc(F)c[nH]1`, for which the melting point lay within 119 to 121 °C. Regarding `COc1ccc(N)cc1OCC(N)=O`, the melting point is 161 to 163 °C. On to `Cc1ccc(S(N)(=O)=O)s1`, for which the melting point is 118 to 120 °C. `O=C(O)Cc1csc(-c2cccnc2)n1`: the melting point lay within 115 to 117 °C. The compound `CC(C)(C)c1ccc(S(=O)(=O)N2CCNCC2)cc1` registered a melting point of 126 to 128 °C. `CCn1nc(C)c(C(=O)O)c1Cl` returned a melting point of 129 to 131 °C. For `O=C(O)Cn1cnc([N+](=O)[O-])n1` the value was 187 to 189 °C; for `COc1ccc(OCC(=O)NN)cc1`, 142 to 144 °C. `CCNc1ccc(C#N)cn1`: the melting point was 88 to 90 °C. `CC(C)(C)C1CCCCC(=O)N1` (stereo not drawn) registered a melting point of 126 to 128 °C. `NCc1ccc(N2CCNCC2)cc1` yielded a melting point of 163 to 165 °C. Consider `O=C1CCc2c(OCc3ccccc3)cccc21`, for which the melting point is 71 to 73 °C. The compound `O=C(CSc1nnc(S)s1)c1ccccc1` had a melting point of 188 to 192 °C. The compound `O=C1NCCNC1(O)C(F)(F)F` (stereo not drawn) had a melting point of 144 to 146 °C. `CCOC(=O)c1[nH]c2c(c1C)C(=O)CC(C)(C)C2` registered a melting point of 159 to 163 °C.

`CC(O)c1ccc(I)cc1` (stereo not drawn) returned a melting point of 43 to 45 °C.

The compound `CNc1ccc(Cl)cc1[N+](=O)[O-]` had a melting point of 106 to 108 °C. For the compound `Cc1cc(Br)ccc1CO`, the melting point was in the range of 74 to 76 °C. In turn, `Cc1ccc(S(=O)(=O)C2(C(=O)O)CCC2)cc1` returned a melting point of 105 to 107 °C. In the case of `CC(C)Cc1nc(N)sc1C(=O)O` it was 149 to 151 °C; in that of `O=C(c1cc(Cl)c[nH]1)N1CCCNCC1`, 116 to 118 °C; in that of `Nc1cc(-c2cccc(Br)c2)no1`, 122 to 124 °C. As to `NC1CCCc2nc(-c3ccc(F)cc3)sc21` (stereo not drawn), the melting point lay in the range of 54 to 56 °C. `NC(=S)N1CCN(c2ccc(Cl)cc2)CC1` had a melting point of 176 to 178 °C.

For `Cc1ccc(S(N)(=O)=O)cc1C(=O)O`, the melting point fell in the range of 175 to 190 °C. In turn, `CN(C)C=C1C(=O)CCCC1=O` gave a melting point of 111 to 113 °C. For `CN(C)c1cccc(C(=O)NN)c1` the value was 99 to 101 °C; for `Nc1ccccc1CC(=O)O`, 119 to 121 °C.

In the case of `Cc1cc(N)n(-c2ccccc2C(F)(F)F)n1`, the melting point was in the range of 102 to 104 °C. For `O=C(O)c1cc([N+](=O)[O-])c[nH]1` the value was 198 to 200 °C. Consider `NC(=S)Nc1ccccc1OC(F)(F)F`, for which the melting point was 156 to 158 °C. Take `C#CCS(=O)(=O)CCNC(=O)OC(C)(C)C`: the melting point lay within 126 to 128 °C.

In turn, `CC(C)(C)OC(=O)c1cccc(C=O)c1` had a melting point of 31 to 33 °C. In turn, `Clc1ccc2nnc(-c3ccccc3)n2n1` came in with a melting point of 201 to 203 °C. With `Sc1nnnn1C1CCOCC1`, the melting point is 154 to 156 °C. `COCCn1nnc(C(=O)O)c1C(F)(F)F` registered a melting point of 55 to 57 °C. `CNCC(=O)N(C)c1ccccn1` displayed a melting point of 108 to 110 °C. In turn, `OCCNc1ccc(Cl)nn1` showed a melting point of 133 to 135 °C.

`CN(C)C(=O)Cc1ccc(N)cc1` registered a melting point of 97 to 99 °C. For `O=C1NC(=O)N(c2ccc3c(c2)OCO3)C1=O` the value was 195 to 197 °C; for `Cc1cccc2[nH]c(CC#N)nc12`, 158 to 160 °C. As for `COc1ccc(OC)c(C(O)CN)c1` (stereo not drawn), the melting point lay within 96 to 98 °C.

The compound `Cc1noc(C(F)F)c1C(=O)O` registered a melting point of 134 to 136 °C. Turning to `Clc1ccc2c(n1)NCC2`, the melting point fell in the range of 141 to 143 °C. In the case of `Cc1[nH]c2ccc(C#N)cc2c1C` it was 145 to 147 °C; in that of `O=S(=O)(c1ccc(CBr)cc1)C(F)F`, 57 to 61 °C; in that of `CS(=O)(=O)Cc1ccc(N)cc1`, 159 to 161 °C. `Nc1[nH]nc(CCC2CCCCC2)c1-c1ccc(Br)cc1`: the melting point is 168 to 170 °C. `Nc1cc(N2CCCS2(=O)=O)ccc1Cl` displayed a melting point of 139 to 141 °C.

Take `COCCOc1c(Cl)cc(N)cc1Cl`: the melting point was 58 to 60 °C. For `CCOC(=O)c1c(C)oc2cc3c(C(=O)OCC)c(C)oc3cc12` the value was 187 to 189 °C.

Regarding `Cc1c(C=O)cc(C#N)n1C`, the melting point fell in the range of 85 to 97 °C. `Nc1nc(-c2ccccc2OC(F)F)n[nH]1` yielded a melting point of 188 to 190 °C. `CCN(CC)C1=NC(=O)C(CC(=O)Nc2cccc(C(=O)O)c2)S1` (stereo not drawn) gave a melting point of 236 to 238 °C. Take `O=C(CCl)N1CCN(S(=O)(=O)c2ccc([N+](=O)[O-])cc2)CC1`: the melting point lay within 187 to 189 °C.

Turning to `COc1cccc(C(=O)c2c(N)sc3c2CCC3)c1`, the melting point was in the range of 127 to 129 °C. For the compound `CC(N)(C(N)=O)c1cccc(C(F)(F)F)c1` (stereo not drawn), the melting point is 84 to 86 °C. In turn, `CC(C)(O)CN1CCNCC1` registered a melting point of 61 to 63 °C. Compound `Cn1ncc2c(N3CCNCC3)ncnc21` displayed a melting point of 64 to 66 °C. Turning to `CN(Cc1ccccc1)S(=O)(=O)c1ccc(N)cc1`, the melting point is 127 to 131 °C. Consider `CC1(c2ccsc2)CC(=O)NC1=O` (stereo not drawn), for which the melting point was in the range of 96 to 98 °C. For `Cc1cc(NC(=O)Nc2cc(C)nn2C)n(C)n1` the value was 209 to 211 °C; for `OC1CCCCC1c1ccc(F)cc1` (stereo not drawn), 71 to 73 °C; for `NC(=NO)c1cccc(Cn2cnc3ccccc32)c1`, 226 to 228 °C.

In the case of `COc1ccc(S(=O)(=O)N2CCCCCC2)cc1NC(=O)CCl`, the melting point is 105 to 107 °C. As for `O=C1NC(=O)C2(CCc3cc(Cl)ccc32)N1` (stereo not drawn), the melting point lay in the range of 252 to 254 °C. The compound `NC(=O)c1ccc2[nH]cc(C3CCNCC3)c2c1` showed a melting point of 149 to 151 °C. For `N#CCc1nc2cc(C(F)(F)F)ccc2s1` the value was 95 to 97 °C; for `Cc1cccc(NC(=O)C(C)Cl)c1` (stereo not drawn), 128 to 130 °C. Regarding `N#Cc1cccc(COc2ccc(N)cc2Cl)c1`, the melting point lay within 112 to 114 °C. For `FC(F)(F)c1nc(Cl)c2sccc2n1` the value was 95 to 97 °C. As for `O=C(O)c1cnc2c(cnn2C2CCCC2)c1`, the melting point was in the range of 141 to 143 °C. Consider `O=C(O)CC#Cc1ccccc1`, for which the melting point was 71 to 73 °C. As to `Cc1ccc(-c2nc(C)c(C(C)O)s2)cc1` (stereo not drawn), the melting point lay within 111 to 113 °C.

Compound `Cc1ccccc1N1C(=O)c2ccc(C(=O)O)cc2C1=O` came in with a melting point of 234 to 236 °C. `CC(Oc1cccc(CO)c1)C(=O)O` (stereo not drawn): the melting point was 95 to 97 °C.

`O=C1CC2CCCc3cccc1c32` (stereo not drawn): the melting point fell in the range of 95 to 97 °C. Compound `CC(C)C1CCNC(=O)CC1` (stereo not drawn) registered a melting point of 76 to 78 °C. As for `Cc1cc2c(N3CCCC3C(=O)O)ncnc2s1` (stereo not drawn), the melting point was 129 to 131 °C. `CNS(=O)(=O)c1ccc(C)c(C(=O)O)c1`: the melting point was in the range of 170 to 172 °C. On to `Cc1ccc(NC(N)=S)cc1F`, for which the melting point lay in the range of 148 to 150 °C. Compound `CC(C)(C)OC(=O)NC(C)(C)C(N)=S` displayed a melting point of 169 to 171 °C. Regarding `CC(=O)Nc1ccc(S(=O)(=O)N2CCC(=NO)CC2)cc1`, the melting point was in the range of 200 to 202 °C. As to `O=C(CCl)NC1CCS(=O)(=O)C1` (stereo not drawn), the melting point is 89 to 98 °C.

`NC(=O)Nc1ccc2c(c1)OCCO2` registered a melting point of 159 to 161 °C. On to `COC(=O)CCc1c(C)nn(-c2ccc(C(=O)O)cc2)c1C`, for which the melting point was in the range of 166 to 175 °C.

In turn, `Sc1nccn1Cc1ccccc1` showed a melting point of 146 to 148 °C.

For the compound `Nc1sc2c(c1C(=O)NC1CC1)CCC2`, the melting point was in the range of 170 to 172 °C.

As for `Oc1ccc(I)nc1`, the melting point was 185 to 187 °C.

Compound `CC(=O)NC1(C(=O)O)CCCCCC1` showed a melting point of 196 to 198 °C. `CCCc1cc(Cl)n2nc(C(=O)OC)nc2n1`: the melting point lay in the range of 117 to 119 °C.

Turning to `COc1ccc(C2(C)NC(=O)N(NC(=O)CCl)C2=O)cc1` (stereo not drawn), the melting point is 124 to 126 °C. In turn, `OCc1nnc(-c2ccccc2Cl)o1` showed a melting point of 101 to 103 °C. `O=S(=O)(Cl)c1cnc(Cl)c(Cl)c1` showed a melting point of 46 to 48 °C. Regarding `CCOc1ccccc1C(N)=S`, the melting point lay in the range of 115 to 117 °C.

As for `Cc1nc(Cl)c(NN)nc1C`, the melting point fell in the range of 134 to 136 °C.

`O=C(c1ccc(Cl)cc1)N1CCNCC1` registered a melting point of 80 to 82 °C. `Cc1nc(-c2ccc(F)cc2)cs1` registered a melting point of 74 to 76 °C. Compound `CNC(=O)Cn1nc(N)cc1C` registered a melting point of 115 to 117 °C. In the case of `Cc1c(N)cccc1C(=O)Nc1ccccc1` it was 161 to 163 °C.

Turning to `CC(CSc1ccccc1)C(=O)O` (stereo not drawn), the melting point was 40 to 42 °C. For `Cc1cc(=O)c(C(=O)O)n[nH]1` the value was 193 to 195 °C; for `COc1ccc(Cn2nccc2N)cc1OC`, less than 17 °C; for `CCOC(=O)/C(C#N)=C\Nc1ccc(Cl)cc1`, 141 to 143 °C. The compound `O=C1CSC(=S)N1c1ccc(F)cc1` had a melting point of 137 to 139 °C. `O=C(O)/C=C/c1ccc(-n2ccnc2)cc1` yielded a melting point of 300 to 302 °C. On to `Cc1nc([N+](=O)[O-])cn1CCC(=O)O`, for which the melting point lay within 217 to 219 °C. `O=C(O)c1c(-n2cccc2)sc2c1CCSC2` gave a melting point of 169 to 171 °C.

As for `COc1ccc(CNC(=O)C2CCNCC2)cc1`, the melting point was in the range of 118 to 120 °C. For the compound `CN(C)C(=O)c1c[nH]c2ccccc12`, the melting point was 234 to 236 °C. `O=C(O)c1cc(NCc2ccccc2)ccn1` came in with a melting point of 274 to 276 °C. In the case of `O=C(O)C(Cc1ccsc1)C(=O)O` it was 108 to 110 °C; in that of `Nc1ccc(NC(=O)CN2CCCCCC2)cc1`, 82 to 84 °C. Compound `Nc1cccc(OCCF)c1` yielded a melting point of 33 to 35 °C.
